{
  "source": "paper PMC5632672",
  "about": "“Generation of Persister Cells of Pseudomonas aeruginosa and Staphylococcus aureus by Chemical Treatment and Evaluation of Their Susceptibility to Membrane-Targeting Agents” (Frontiers in Microbiology, 2017)",
  "key": {"[1]": {"test_system": "Pseudomonas aeruginosa ATCC 27853", "conditions": "ATCC 27853, 3 h"}, "[2]": {"test_system": "Staphylococcus aureus ATCC 33591", "conditions": "ATCC 33591, 3 h"}},
  "note": "No end group written: not given here.",
  "data": [
    {"substance": "FLPIVGLLKSLLK-NH2 [TB_L1FK]", "values": [
      {"measurement": "MBC, P. aeruginosa CCCP-pretreated", "setting": "[1]", "result": 14, "unit": "µM"},
      {"measurement": "MBC, P. aeruginosa CCCP-untreated", "setting": "[1]", "result": 14, "unit": "µM"},
      {"measurement": "MBC, S. aureus CCCP-pretreated", "setting": "[2]", "result": 3.5, "unit": "µM"},
      {"measurement": "MBC, S. aureus CCCP-untreated", "setting": "[2]", "result": 7, "unit": "µM"}
    ]}
  ]
}
